Results as given in PMC5727211, “Development of Erasin: a chromone-based STAT3 inhibitor which induces apoptosis in Erlotinib-resistant lung cancer cells” (Scientific Reports, 2017).
“Also recorded” adds a separate entry of the source.

Columns and labels:
Type in all cases: cell-based, human
Conditions in all cases: 24 h
[1] = system: MDA-MB-231 cells; assay: Apoptosis assay (Annexin V/7-AAD flow cytometry), MDA-MB-231 cells
Procedure: MDA-MB-453 cells (3 × 10^5 cells per well), MDA-MB-231 cells (2 × 10^5 cells per well), parental HCC-827 or Erlotinib-resistant HCC-827 cells (both 2.5 × 10^5 cells per well) were seeded in 24-well tissue culture plates (Corning #3524) and treated with test compound or DMSO (final DMSO concentration: 0.2%) for 24 h. Afterwards, the cell culture supernatant from each well was collected. Cells were washed twice with warm PBS and incubated with Accutase (BD Bioscience #561527) at 37 °C for 10 min. The supernatants were then returned to each well to neutralize the Accutase solution and the cells were centrifuged at 3000 rpm, at 4 °C for 5 min. The cell pellets were washed twice with cold PBS and centrifuged again. PE Annexin V Apoptosis Detection Kit I (BD Bioscience, 559763) was used for cell staining. Cells were resuspended in 1 x binding buffer and incubated with PE Annexin V and 7-AAD at 4 °C for 30 min. Apoptosis was measured using an LSR II flow cytometer (BD Bioscience). Experiments were carried out in at least triplicate.

[2] = system: parental HCC-827 cells; assay: Apoptosis assay (Annexin V/7-AAD flow cytometry), parental HCC-827 cells
Procedure: Afterwards, the cell culture supernatant from each well was collected. […] The supernatants were then returned to each well to neutralize the Accutase solution and the cells were centrifuged at 3000 rpm, at 4 °C for 5 min. The cell pellets were washed twice with cold PBS and centrifuged again. […] Cells were resuspended in 1 x binding buffer and incubated with PE Annexin V and 7-AAD at 4 °C for 30 min. Apoptosis was measured using an LSR II flow cytometer (BD Bioscience). Experiments were carried out in at least triplicate.

[3] = system: STAT3 Tyr705 phosphorylation; assay: Western Blot, STAT3 Tyr705 phosphorylation in parental HCC-827 cells
Procedure: (§1) HepG2 cells were plated in 6-well plates (Corning #3516) and allowed to reach approximately 60% confluence. The medium was then replaced with serum-free medium for 24 h. Cells were subsequently pre-treated with compound or DMSO (final DMSO concentration: 0.2%) for 1 h at 37 °C, prior to stimulation for 15 min with 50 ng/mL IFNγ (Pepro Tech, for STAT1 phosphorylation), or 30 min with 50 ng/mL IL-6 (Pepro Tech, for STAT3 phosphorylation). Cells were treated with test compound or DMSO for 1 h (final DMSO concentration 0.2%). K562 cells (1.5 × 10^6 cells per well) were seeded in 6-well plates (Corning #3516) and were treated with test compound or DMSO for 1.5 h (final DMSO concentration 0.2%). […] Afterwards, cells were treated with the test compounds or DMSO (final DMSO concentration: 0.2%) for 24 h. Afterwards, the cells were washed twice with cold phosphate buffered saline (PBS). […]
(§2) Lysates were separated on a polyacrylamide gel under denaturing conditions, and transferred to a nitrocellulose membrane. STAT phosphorylation was assessed using rabbit monoclonal antibodies against the phosphorylated forms only of STAT1, STAT3 or STAT5 (Cell Signaling, 1:1000) with secondary antibody swine anti-rabbit HRP from Dako, 1:3000), followed by reblotting with rabbit monoclonal antibodies against total STAT1, STAT3 or STAT5 (Cell Signaling), and subsequently β-actin loading control. […]

[4] = system: STAT3 Tyr705 phosphorylation; assay: Western Blot, STAT3 Tyr705 phosphorylation in Erlotinib-resistant HCC-827 cells
Procedure: as §1, §2

| SMILES | increase in rate of apoptosis relative to DMSO control [1] | increase in rate of apoptosis relative to DMSO control [2] | STAT3 Tyr705 phosphorylation [3] | STAT3 Tyr705 phosphorylation [4] |
| --- | --- | --- | --- | --- |
| CC(C)(C)c1ccc2occ(/C=N/NC(=O)c3cccnc3)c(=O)c2c1 [Compound 8] | up to three-fold increase | up to four-fold increase | dose-dependent inhibitory effect | dose-dependent inhibitory effect |
| CCC(C)(C)c1ccc2occ(/C=N/NC(=O)c3cccnc3)c(=O)c2c1 [Compound 9] | did not significantly increase apoptosis | did not significantly increase apoptosis; also recorded: did not increase the apoptotic rate | did not reduce STAT3 Tyr705 phosphorylation | did not reduce STAT3 Tyr705 phosphorylation |
